Activity calls are given as the source filed them. The rule behind the calls is not given here.

The target in the experiment is Induced myeloid leukemia cell differentiation protein Mcl-1 (Homo sapiens) (UniProt Q07820). The experiment in a line: blockers of Bid binding to Mcl-1 – biochemical, TR-FRET, dose response (AID 1418). As to conditions: Mcl-1/Bid peptide binding, TR-FRET (europium/Dy647), 2 hr.
Chain of Induced myeloid leukemia cell differentiation protein Mcl-1 (Homo sapiens) (Q07820 whole entry, looked up): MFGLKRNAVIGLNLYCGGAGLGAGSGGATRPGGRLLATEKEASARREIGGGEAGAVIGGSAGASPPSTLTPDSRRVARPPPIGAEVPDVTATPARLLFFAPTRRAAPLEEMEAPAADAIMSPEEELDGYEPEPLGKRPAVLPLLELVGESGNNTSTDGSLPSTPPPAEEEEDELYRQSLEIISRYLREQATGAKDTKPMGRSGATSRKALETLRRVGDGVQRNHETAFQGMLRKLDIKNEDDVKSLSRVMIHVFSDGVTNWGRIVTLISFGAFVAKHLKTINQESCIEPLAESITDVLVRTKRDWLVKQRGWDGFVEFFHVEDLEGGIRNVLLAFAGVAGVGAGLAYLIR
A word on the IC50: it is the concentration that inhibits the measured activity by half. With `Fc1ccccc1NC(=S)N1CCN(Cc2ccc3c(c2)OCO3)CC1`, the IC50 is > 54 µM (inactive).

As for `CCOC(=O)c1c2ccc(OCC(=O)N/N=C/c3ccc(C)cc3)cc2n2ccccc12`, the IC50 is 6.23 µM. The result for `Nc1ccccc1Nc1ccccc1` reads > 54 µM (inactive); that for `COc1cc(/C=C2\SC(=O)N(c3ccc(Cl)cc3)C2=O)cc([N+](=O)[O-])c1O`, 1.58 µM; that for `COc1cc(OC)cc(C(=O)N(CCCN2C(=O)c3cccc4cccc(c34)C2=O)c2cccc(OC)c2)c1`, > 54 µM (inactive). Consider `Cc1cc(=O)oc2cc(OCC(=O)N/N=C/c3cc([N+](=O)[O-])ccc3O)ccc12`, for which the concentration for half-maximal inhibition (IC50) is 5.58 µM. To `CCOC(=O)c1c(NC(=O)N/N=C/c2ccc(O)c(OC)c2)sc(C(C)=O)c1C` belongs 0.53 µM; to `O=C(O)CCN1C(=O)S/C(=C\c2cccnc2)C1=O`, > 54 µM (inactive). To `CCCCCCCCCCCCCCCC[n+]1cccc2ccccc21` belongs 6.64 µM; to `CCOC(=O)c1nc(C)sc1-c1ccnn1S(=O)(=O)c1ccc(C)cc1`, > 54 µM (inactive); to `O=[N+]([O-])c1cc(Br)c(O)c(/C=N/Nc2nc3ccccc3s2)c1`, 1.16 µM. To `CCCN1CCC(NC(=S)Nc2ccc(C(=O)OCC)cc2)CC1` belongs > 54 µM (inactive); to `COC(=O)c1ccc2c(=O)n(CCCCCC(=O)NCc3ccc4c(c3)OCO4)c(=O)[nH]c2c1`, “inactive”; to `O=C(Cc1cccs1)N1CCN(S(=O)(=O)c2ccccc2)CC1`, > 54 µM (inactive). Regarding `Clc1ccc(SCCn2ccnc2)cc1`, the IC50 result was “inactive”.

On to `COc1ccc(C(=O)N(Cc2ccccc2)Cc2cc3cc4c(cc3[nH]c2=O)OCCO4)cc1`, for which the IC50 was > 54 µM (inactive).

On to `O=C(Nc1ccc(-c2nc3ccc(NC(=O)c4cccs4)cc3[nH]2)cc1)c1cccs1`, for which the IC50 is 0.79 µM. The result for `O=[N+]([O-])c1cccc(S(=O)(=O)Nc2nc3ccccc3nc2Nc2cccc(S(=O)(=O)N3CCCCC3)c2)c1` reads “inactive”; that for `Clc1ccccc1CN1CCc2sccc2C1`, > 54 µM (inactive). For `O=S(=O)(c1cccc(-c2nnc(SC(F)F)n2-c2ccccc2)c1)N1CCCCC1`, the IC50 is > 54 µM (inactive). `CCCOc1ccc(C(=O)NCC(c2ccco2)N(C)C)cc1OC` (configuration not stated): the IC50 is > 54 µM (inactive). Regarding `Clc1ccccc1-c1nc2ccccc2[nH]1`, the IC50 is > 54 µM (inactive). As to `COc1ccc(N2CCN(C(=O)c3ccc4c(c3)OCO4)CC2)cc1`, the IC50 was > 54 µM (inactive). As for `C#CCOCCOCCOCCNc1nc(N2CCN(C(=O)C(Cc3ccc(O)cc3)n3cc(C(N)CC(C)C)nn3)CC2)nc(N2CCN(C(=O)C(Cc3cc4ccccc4[nH]3)n3cc(C(N)Cc4ccc(O)cc4)nn3)CC2)n1` (configuration not stated), the IC50 is > 54 µM (inactive). Take `O=C(CNc1ccc2ccccc2c1)N/N=C/c1ccc([N+](=O)[O-])o1`: the IC50 was > 54 µM (inactive). In the case of `COc1cc(Cl)c(C)cc1NC(=O)CCCn1c(=O)oc2ccccc21`, the IC50 was > 54 µM (inactive). With `O=C(CSc1nccc(=O)[nH]1)c1ccccc1Br`, the IC50 was > 54 µM (inactive). For the compound `O=C(Nc1ccc2oc(=O)ccc2c1)c1ccc(-c2cccc([N+](=O)[O-])c2)o1`, the 50% inhibitory concentration (IC50) was 0.65 µM. As for `NC(=S)n1[nH]c(-c2ccc([N+](=O)[O-])cc2)c(N=Nc2ccccc2[N+](=O)[O-])c1=O`, the half-inhibitory concentration (IC50) is 3.26 µM. The result for `Cc1n[nH]c(=S)c2nn(-c3ccccc3)c(C)c12` reads > 54 µM (inactive). As for `COc1ccc(N2C(=O)CC(S/C(N)=N/N=C/c3ccnc4ccccc34)C2=O)cc1` (configuration not stated), the IC50 is > 54 µM (inactive). `COc1cc(C(=O)N/N=C\c2ccccc2)c([N+](=O)[O-])c(OC)c1OC`: the IC50 was > 54 µM (inactive). `Cc1cccc(N2CCN(C(=O)Cc3ccc(-n4c(=O)[nH]c5ccsc5c4=O)cc3)CC2C)c1` (configuration not stated): the IC50 is > 54 µM (inactive).

As to `O=C(/C=C/N1CCOCC1)c1cc2ccccc2o1`, the IC50 was > 54 µM (inactive). The result for `Cc1ccc(S(=O)(=O)/N=C(\CCl)N2CCOCC2)cc1` reads > 54 µM (inactive). As for `COc1ccccc1CN1CCN(C(=O)Cc2ccccc2)CC1`, the IC50 was > 54 µM (inactive). For the compound `CC(C)(C)CC(C)(C)NC(=S)NC1CCN(Cc2ccccc2)CC1`, the IC50 is > 54 µM (inactive). The result for `COc1cccc2c(=O)c(C/C=C(/C)Cl)c(C)[nH]c12` reads > 54 µM (inactive); that for `Cc1ccc([N+](=O)[O-])cc1N=Nc1c(-c2ccc([N+](=O)[O-])cc2)[nH]n(C(N)=S)c1=O`, 2.22 µM.

For the compound `O=C(Nc1ccccn1)c1ccc([N+](=O)[O-])cc1Cl`, the IC50 was > 54 µM (inactive).

On to `CC(=O)C1=C(C)NC(SCC(N)=O)=C(C#N)C1c1cccnc1` (configuration not stated), for which the IC50 was > 54 µM (inactive). As to `O=C(NCCc1csc(-c2cccnc2)n1)c1cccs1`, the IC50 was > 54 µM (inactive).

For the compound `Cc1cc(NC(=O)c2noc3c2CCc2ccccc2-3)no1`, the IC50 was > 54 µM (inactive). To `O=C(CCS(=O)(=O)c1ccc(Br)s1)NC1CCCCCC1` belongs > 54 µM (inactive).

As to `CC1(C)Oc2ccc3ccc(=O)oc3c2C[C@H]1O`, the IC50 is > 54 µM (inactive). To `Cc1[nH]n2c(=O)c3c(nc2c1-c1ccc(F)cc1)CCCC3` belongs > 54 µM (inactive).

Turning to `C=CCNCCCOc1ccc(Cl)cc1Br`, the IC50 was > 54 µM (inactive). On to `COc1ccccc1NC(=O)COc1cc(Br)c(CNCCCN2CCOCC2)cc1OC`, for which the IC50 was > 54 µM (inactive). In the case of `Cc1ccc(C(=O)NC(C)c2nc3ccccc3n2CC(=O)Nc2c(C)cc(C)cc2C)cc1` (configuration not stated), the IC50 is 0.45 µM. On to `CC(Cc1ccccc1)NCC(=O)Nc1cc(N(C)C)nc2ccccc12` (configuration not stated), for which the IC50 was > 54 µM (inactive). Regarding `COc1cc(NS(=O)(=O)c2ccc(NC(=S)NC(=O)c3sc4ccccc4c3Cl)cc2)nc(OC)n1`, the IC50 is > 54 µM (inactive). As to `O=C(C1=C[C@@H](c2csc3ccccc23)C[C@@H](OCc2ccc(CO)cc2)O1)N1CCN(Cc2ccc3c(c2)OCO3)CC1`, the IC50 was > 54 µM (inactive).

With `COc1ccc(C(=O)/C=C/c2ccc(N3CCCCC3)c([N+](=O)[O-])c2)cc1`, the IC50 was > 54 µM (inactive). Take `COc1ccccc1C1CC(c2ccccc2)Nc2ncnn21` (configuration not stated): the IC50 was > 54 µM (inactive).

Take `COc1ccc(N/C=C2\C(=O)CCc3c2oc2cc(Cl)c(O)c(Cl)c32)cc1`: the IC50 is 0.79 µM. The result for `Cc1cc(-c2ccco2)n2c(nc3ccccc32)c1C#N` reads > 54 µM (inactive); that for `CC1C(c2ccccc2)N(C)CCC12NC(=O)NC2=O` (configuration not stated), > 54 µM (inactive); that for `C#CCOCCOCCOCCNc1nc(N2CCN(C(=O)[C@H](Cc3cc4ccccc4[nH]3)n3cc([C@@H](N)C(C)CC)nn3)CC2)nc(N2CCN(C(=O)[C@H](CCCCN)n3cc([C@@H](N)CC(C)C)nn3)CC2)n1` (some centres not stated), 16.9 µM. The result for `O=C1Nc2ccc(Br)cc2/C1=C/C(=O)c1ccc2c(c1)OCO2` reads 1.93 µM; that for `O=C(/C=C/N1CCOCC1)c1coc2ccccc12`, > 54 µM (inactive). In the case of `CCCCCCCCCCCCCCCC(O)C(N)CO` (configuration not stated), the IC50 was > 54 µM (inactive).

Take `Clc1ccc(OCCN2CCCCC2)c(Cl)c1`: the IC50 is > 54 µM (inactive).
